Experimental data taken from PubChem BioAssay AID1963425 (Molecular Pharmacology Branch, DTP, NCI, 2024).

Test system: 323965-272-R-J2-PDC complex spheroid growth, % test/control
Experiment: Anticancer human tumor 323965-272-R-J2-PDC patient-derived pancreatic carcinoma cell line growth inhibition [Asc]
Details: for IC50: curve of first compound; for viability, T/C: stronger effect = lower value; active means viability on the fitted dose curve at most 10% of control; inactive means the rest
Procedure: Multicellular complex tumor spheroid response to apoptosis pathway targeting inhibitors Alrizomadlin, Pelcitoclax, and Dasminapant in combination with a variety of drugs and investigational agents in selected tumor cell lines
The MDM2 inhibitor alrizomadlin, the Bcl-2/Bcl-xL inhibitor pelcitoclax, and the IAPs inhibitor dasminapant were evaluated both individually and in combination with standard of care and investigational anticancer small molecules within a complex spheroid model of solid tumors. . Complex spheroids include a stromal component modeled by human endothelial cells (HUVEC) and fibroblasts modeled by human mesenchymal stem cells (MSCs). The concentration ranges selected for each drug and investigational agent were based upon clinically achievable concentrations if the clinical Cmax of the agent was known.
Compounds. The drugs and investigational agents: alrizomadlin (APG-115; NSC831270), pelcitoclax (APG-1252; NSC835773), dasminapant (APG-1387;NSC834197), TAK-243 (NSC785004), copanlisib (NSC809693), olaparib (NSC753686), talazoparib (NSC767125), cobimetinib (NSC 768068), eltanexor (KPT-8602, NSC 794443), abemaciclib (NSC 768073), sotorasib (NSC818433), adagrasib (NSC 831453), MRTX-1133 (NSC 836407), Iadademestat (ORY1001, NSC 806812), and RMC-4630 (NSC839698), were obtained from the NCI Developmental Therapeutics Program Chemical Repository. The FDA-approved anticancer drug set is available from the Developmental Therapeutics Program at https://dtp.cancer.gov/organization/dscb/obtaining/available plates.htm. […] The stock solutions were prepared in dimethyl sulfoxide (DMSO, Sigma-Aldrich, St. Louis, MO, cat. D2650) at 800-fold the tested concentration and stored at -70 degrees C prior to their use. All drugs and investigational agents were tested over a range starting from a high concentration at or near the clinical Cmax and decreasing in half-log increments. If the clinical Cmax for an agent had not been determined, the highest concentration tested was 10 microM.
The patient-derived cancer (PDC) cell lines include five colon adenocarcinomas: 186277-243-T-J2-PDC, 616215-338-R-J1-PDC, 439559-082-T-J2-PDC, 463943-066-T-J2-PDC, and 519858-162-T-J1-PDC; three pancreatic carcinomas: 323965-272-R-J2-PDC, 521955-158-R6-J3-PDC, and 521955-158-R2-J5-PDC; two uterine sarcomas: 327498-152-R-J2-PDC and 993429-296-R-J1-PDC; two rhabdomyosarcomas: 755483-174-R-J1-PDC and 772245-204-R-J1-PDC; two soft tissue sarcomas: 126254-015-R-J1-PDC and 494315-158-R-J1-PDC; two malignant fibrous histiocytomas: 317291-083-R-J1-PDC and 596521-263-R-J1-PDC; two breast carcinomas: 171881-019-R-J1-PDC and 885512-296-R-J2-PDC; and one ovarian carcinoma: 6556581-035-R-J-PDC were obtained from the NCI PDMR, (https://pdmr.cancer.gov). The established cell lines HSSY-2 synovial sarcoma (RRID:CVCL 8719), SYO-1 synovial sarcoma (RRID:CVCL_7146), MPNST malignant peripheral neural sheath tumor were obtained from the Sloan Kettering Institute. The following established cell lines were purchased from the American Type Culture Collection (ATCC, Manassas, VA), Sor the received from the NCI repository:, PANC-1 pancreatic carcinoma (CRL-1469, RRID:CVCL_0480), OVCAR-5 ovarian carcinoma (RRID:CVCL_1628), OVCAR-8 ovarian carcinoma (RRID:CVCL_1629), , MCF-7 breast carcinoma (CRL-12584, RRID:CVCL_0031), MDA-MB-231 breast carcinoma (CRL-12532, RRID:CVCL_0062), NCI-H1876 small cell lung carcinoma (CRL-5902, RRID:CVCL_1503), NCI-H510A small cell lung carcinoma (HTB-184, RRID:CVCL_1565), NCI-H1417 (CRL-5869, RRID:CVCL_1469), and NCI-H196 small cell lung carcinoma (CRL-5823, RRID:CVCL_1509). Dr. Peter Houghton (Greehey Children's Cancer Research Institute, University of Texas Health Science Center, San Antonio, TX) provided Rh-18 rhabdomyosarcoma (RRID:CVCL_1659). Pooled donor human umbilical vein endothelial cells (HUVEC, Lonza, cat. CC-2519) and human mesenchymal stem cells (hMSC, Lonza, cat. PT-2501) were purchased from Lonza (Walkersville, MD).
Cell Culture. […]
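Further: compound exposure lasted 7 days starting three days after spheroid seeding.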
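Wherever viability, T/C is given: 100% = DMSO vehicle control wells with viability set relative to vehicle.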

O=C(c1ccc(F)c(F)c1Nc1ccc(I)cc1F)N1CC(O)([C@@H]2CCCCN2)C1 + CCN1C(C(=O)NC23CCC(C(=O)O)(CC2)CC3)C(c2cccc(Cl)c2F)C2(C(=O)Nc3cc(Cl)ccc32)C12CCCCC2
150 nM: IC50 (second compound 0.03 µM)
127 nM: IC50 (second compound 0.0949 µM)
inactive: viability, T/C (second compound 0.00949 µM, first compound 0.00316 µM) 110% | viability, T/C (second compound 0.00949 µM, first compound 0.01 µM) 88.1% | viability, T/C (second compound 0.00949 µM, first compound 0.0316 µM) 75% | viability, T/C (second compound 0.00949 µM, first compound 0.1 µM) 52.1% | viability, T/C (second compound 0.00949 µM, first compound 0.316 µM) 32.1% | viability, T/C (second compound 0.00949 µM, first compound 1 µM) 19.9% | viability, T/C (second compound 0.03 µM, first compound 0.00316 µM) 113% | viability, T/C (second compound 0.03 µM, first compound 0.01 µM) 92% | viability, T/C (second compound 0.03 µM, first compound 0.0316 µM) 86.3% | viability, T/C (second compound 0.03 µM, first compound 0.1 µM) 57.3% | viability, T/C (second compound 0.03 µM, first compound 0.316 µM) 33.6% | viability, T/C (second compound 0.03 µM, first compound 1 µM) 19.4% | viability, T/C (second compound 0.0949 µM, first compound 0.00316 µM) 103% | viability, T/C (second compound 0.0949 µM, first compound 0.01 µM) 89.5% | viability, T/C (second compound 0.0949 µM, first compound 0.0316 µM) 75.2% | viability, T/C (second compound 0.0949 µM, first compound 0.1 µM) 55.3% | viability, T/C (second compound 0.0949 µM, first compound 0.316 µM) 32.7% | viability, T/C (second compound 0.0949 µM, first compound 1 µM) 19.1% | viability, T/C (second compound 0.3 µM, first compound 0.00316 µM) 93.7% | viability, T/C (second compound 0.3 µM, first compound 0.01 µM) 106% | viability, T/C (second compound 0.3 µM, first compound 0.0316 µM) 75.7% | viability, T/C (second compound 0.3 µM, first compound 0.1 µM) 54.6% | viability, T/C (second compound 0.3 µM, first compound 0.316 µM) 37.1% | viability, T/C (second compound 0.3 µM, first compound 1 µM) 19.2% | viability, T/C (second compound 0.949 µM, first compound 0.00316 µM) 96.3% | viability, T/C (second compound 0.949 µM, first compound 0.01 µM) 95.9% | viability, T/C (second compound 0.949 µM, first compound 0.0316 µM) 72.9% | viability, T/C (second compound 0.949 µM, first compound 0.1 µM) 54% | viability, T/C (second compound 0.949 µM, first compound 0.316 µM) 33.4% | viability, T/C (second compound 0.949 µM, first compound 1 µM) 19.7% | viability, T/C (second compound 3 µM, first compound 0.00316 µM) 97.6% | viability, T/C (second compound 3 µM, first compound 0.01 µM) 85.2% | viability, T/C (second compound 3 µM, first compound 0.0316 µM) 65.6% | viability, T/C (second compound 3 µM, first compound 0.1 µM) 46.7% | viability, T/C (second compound 3 µM, first compound 0.316 µM) 29.6% | viability, T/C (second compound 3 µM, first compound 1 µM) 18.3%
81 nM: IC50 (second compound 3 µM)
119 nM: IC50 (second compound 0.00949 µM)
134 nM: IC50 (second compound 0.3 µM)
121 nM: IC50 (second compound 0.949 µM)
